Laboratory results published in US10633350B2, “Diphenyl derivatives and uses thereof” (NOVARTIS AG, priority 2017, dated 2020).

Columns and labels:
FoxO3a = FoxO3a inhibition assay (GFP-FoxO3a nuclear to cytoplasmic translocation) in U2OS GFP-FoxO3a H212R reporter cells; format: cell-based; conditions: Homo sapiens, 0.5 h, serum starved overnight, 30 minutes compound treatment, ratio of nuclear to cytosolic GFP intensity, AC50 = concentration that results in 50% activation or inhibition, read-out: FoxO AC50
How it was run: (§1)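 Serum-starved (overnight) cells treated with compounds at various doses for 30 min, then fixed in 4% paraformaldehyde and stained overnight at 4 °C for pAkt S473 with Hoechst nuclear counterstain; high-content imaging. FoxO3a readout: nuclear/cytosolic GFP ratio (%); Akt readout: total cellular pAkt intensity (%); DMSO = 0% activity.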

Akt = Akt activation assay (Phospho-AKT (Ser473) antibody staining) in U2OS GFP-FoxO3a H212R reporter cells; format: cell-based; conditions: Homo sapiens, 0.5 h, serum starved overnight, 30 minutes compound treatment, total cellular intensity of Phospho-Akt (Ser473) antibody staining, AC50 = concentration that results in 50% activation or inhibition
How it was run: as §1

SMILES | AC50 (FoxO3a) [nM] | AC50 (Akt) [nM]
Cc1nc(C(N)=O)nn1-c1ccc(Cc2ccc(-c3ccc(CN4CC[C@@H](O)C4)cc3)cc2)cc1 [Example 39-4] | 26 | 92
Cc1nc(C(N)=O)nn1-c1ccc(Cc2ccc(-c3ccc(CN4CC[C@H](O)C4)cc3)cc2)cc1 [Example 39-5] | 8 | 22
Cc1nc(C(N)=O)nn1-c1ccc(Cc2ccc(-c3ccc(CN4CCC(C)(O)CC4)cc3)cc2)cc1 [Example 39-6] | 9 | 5
Cc1nc(C(N)=O)nn1-c1ccc(Cc2ccc(-c3ccc(CN4CCS(=O)(=O)CC4)cc3)cc2)cc1 [Example 39-32] | 48 | 85
Cc1nc(C(N)=O)nn1-c1ccc(Cc2ccc(-c3ccc(CN4CCC5(CCO5)CC4)cc3)cc2)cc1 [Example 39-37] | 81 | 270
Cc1nc(C(N)=O)nn1-c1ccc(Cc2ccc(-c3ccc(CN4CCC[C@H]4CO)cc3)cc2)cc1 [Example 39-38] | 48 | 119
Cc1cc(C(N)=O)nn1-c1ccc(Cc2ccc(-c3ccc(CN4CCC(N(C)C)CC4)cc3)cc2)cc1 [Example 40, 1-(4-((4′-((4-(dimethylamino)piperidin-1-yl)methyl)-[1,1′-biphenyl]-4-yl)methyl)phenyl)-5-methyl-1H-pyrazole-3-carboxamide] | 32 | 146
Cc1nc(C(N)=O)nn1-c1ccc(Cc2ccc(-c3ccc(CC4C[C@@H]5CN(C)C[C@@H]5C4)cc3)cc2)cc1 (stereo partly drawn) [Example 41, 5-methyl-1-(4-((4′-(((3aR,6aS)-2-methyloctahydrocyclopenta[c]pyrrol-5-yl)methyl)-[1,1′-biphenyl]-4-yl)methyl)phenyl)-1H-1,2,4-triazole-3-carboxamide] | 114 | 91
Cc1nc(C(N)=O)nn1-c1ccc(Cc2ccc(-c3ccc(CN4CCNCC4)cc3)cc2)cc1 [Example 45, 5-methyl-1-(4-((4′-(piperazin-1-ylmethyl)-[1,1′-biphenyl]-4-yl)methyl)phenyl)-1H-1,2,4-triazole-3-carboxamide] | 130 | 3
Cc1nc(C(N)=O)nn1-c1ccc(Cc2ccc(-c3ccc(C(C)(C)O)nc3)cc2)cc1 [Example 46, 1-(4-(4-(6-(2-hydroxypropan-2-yl)pyridin-3-yl)benzyl)phenyl)-5-methyl-1H-1,2,4-triazole-3-carboxamide] | 234 | 1160
Cc1nc(C(N)=O)nn1-c1ccc(Cc2ccc(-c3ccc(OC4CCN(C)CC4)cc3)cc2)cc1 [Example 47, 5-methyl-1-(4-((4′-((1-methylpiperidin-4-yl)oxy)-[1,1′-biphenyl]-4-yl)methyl)phenyl)-1H-1,2,4-triazole-3-carboxamide] | 93 | 99
Cc1nc(C(N)=O)nn1-c1ccc(Cc2ccc(-c3ccc(C(C)(C)CO)cc3)cc2)cc1 [Example 48, 1-(4-((4′-(1-hydroxy-2-methylpropan-2-yl)-[1,1′-biphenyl]-4-yl)methyl)phenyl)-5-methyl-1H-1,2,4-triazole-3-carboxamide] | 51 | 160
Cc1nc(C(N)=O)nn1-c1ccc(Cc2ccc(N3CCC(C(C)(C)O)CC3)cc2)cc1 [Example 49, 1-(4-(4-(4-(2-hydroxypropan-2-yl)piperidin-1-yl)benzyl)phenyl)-5-methyl-1H-1,2,4-triazole-3-carboxamide] | 273 | 840
Cc1nc(C(N)=O)nn1-c1ccc(Cc2ccc(-c3ccc(S(=O)(=O)NCC(C)(C)O)cc3)cc2)cc1 [Example 50, 1-(4-((4′-(N-(2-hydroxy-2-methylpropyl)sulfamoyl)-[1,1′-biphenyl]-4-yl)methyl)phenyl)-5-methyl-1H-1,2,4-triazole-3-carboxamide] | 36 | 117
Cc1nc(C(N)=O)nn1-c1ccc(Cc2ccc(-c3ccc(C(=O)NCC(C)(C)O)cc3)cc2)cc1 [Example 51, 1-(4-((4′-((2-hydroxy-2-methylpropyl)carbamoyl)-[1,1′-biphenyl]-4-yl)methyl)phenyl)-5-methyl-1H-1,2,4-triazole-3-carboxamide] | 102 | 300
Cc1nc(C(N)=O)nn1-c1ccc(Cc2ccc(-c3ccc(S(=O)(=O)NCC(C)(C)O)cn3)cc2)cc1 [Example 52, 1-(4-(4-(5-(N-(2-hydroxy-2-methylpropyl)sulfamoyl)pyridin-2-yl)benzyl)phenyl)-5-methyl-1H-1,2,4-triazole-3-carboxamide] | 106 | 749
Cc1nc(C(N)=O)nn1-c1ccc(Cc2ccc(-c3cc(C(C)(C)O)ccn3)cc2)cc1 [Example 53, 1-(4-(4-(4-(2-hydroxypropan-2-yl)pyridin-2-yl)benzyl)phenyl)-5-methyl-1H-1,2,4-triazole-3-carboxamide] | 2420 | 8230
Cc1nc(C(N)=O)nn1-c1ccc(Cc2ccc(C#CC3CCN(C)CC3)cc2)cc1 [Example 54, 5-methyl-1-(4-(4-((1-methylpiperidin-4-yl)ethynyl)benzyl)phenyl)-1H-1,2,4-triazole-3-carboxamide] | 248 | 528
